From ChEMBL document CHEMBL1135150, “Vitamin D(3): synthesis of seco C-9,11,21-trisnor-17-methyl-1 alpha, 25-dihydroxyvitamin D(3) analogues” (2002)

What was measured:
[1] = molecular target: T1, Vitamin D3 receptor (Sus scrofa domesticus) (UniProt Q7M3G7); experiment: The affinity to the pig intestinal mucosa vitamin D receptor was evaluated in vitro, results expressed as percentage activity at 50% dose response; type: tissue-based
T1 sequence (whole entry): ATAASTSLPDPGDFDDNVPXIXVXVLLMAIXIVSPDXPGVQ

[2] = test system: Mus musculus; experiment: In vivo calcemic effects was tested in vitamin D-replete normal NMRI mice by daily intraperitoneal injections of 1-alpha,25(OH)2D3; type: functional
[3] = test system: MG-63; experiment: In vitro biological evaluation was determined on MG-63 cell line, results expressed as percentage activity at 50% dose response; type: functional, Homo sapiens
[4] = test system: Keratinocyte; experiment: In vitro biological evaluation was determined on Keratinocytes, results expressed as percentage activity at 50% dose response; type: functional, Homo sapiens
[5] = test system: MCF7; experiment: In vitro biological evaluation was determined on MCF-7 cell line, results expressed as percentage activity at 50% dose response; type: functional, Homo sapiens
[6] = test system: HL-60; experiment: In vitro biological evaluation was determined on HL60 cell line, results expressed as percentage activity at 50% dose response; type: functional, Homo sapiens
[7] = test system: HL-60; experiment: In vitro biological evaluation was determined on HL60, results expressed as percentage activity at 50% dose response; type: functional, Homo sapiens

Compound `C=C1C(=CC=C[C@@H]2CC[C@](C)(CCCC(F)(F)C(C)(C)O)C2(C)C)C[C@@H](O)C[C@@H]1O` has an Activity [1] of 75%, an Activity [2] of 3% and an Activity [3] of 50%. For the same compound, the Activity [4] was 1350%, the Activity [5] was 90% and the Activity [6] was 80%.

Compound `CC(C)(O)C(F)(F)C/C=C\[C@@]1(C)CC[C@@H](/C=C/C=C2C[C@@H](O)C[C@H](O)C2)C1(C)C` has an Activity [1] of 70%, an Activity [2] of 0.5% and an Activity [4] of 60%. For the same compound, the Activity [5] was 10% and the Activity [6] was 20%.

For `CCC(O)(CC)CCCC[C@@]1(C)CC[C@@H](/C=C/C=C2C[C@@H](O)C[C@H](O)C2)C1(C)C`, the Activity [1] was 75%, the Activity [2] was 0.25% and the Activity [3] was 80%. For the same compound, the Activity [4] was 40%, the Activity [5] was 100% and the Activity [6] was 85%.

With `C=C1C(=CC=C[C@@H]2CC[C@](C)(CCCCC(O)(C(F)(F)F)C(F)(F)F)C2(C)C)C[C@@H](O)C[C@@H]1O` the Activity [1] was 80%, the Activity [2] was 10% and the Activity [3] was 200%. The Activity [4] was 750%, the Activity [5] was 1250% and the Activity [6] was 150%.

With `CC1(C)[C@H](/C=C/C=C2C[C@@H](O)C[C@H](O)C2)CC[C@]1(C)CCC#CC(O)(C(F)(F)F)C(F)(F)F` the Activity [7] was 300%, the Activity [1] was 100% and the Activity [2] was 1%. It also gave an Activity [4] of 4500% and an Activity [5] of 2000%.

In the case of `CC(C)(O)C#CCC[C@@]1(C)CC[C@@H](/C=C/C=C2C[C@@H](O)C[C@H](O)C2)C1(C)C`, the Activity [1] is reported as 60%, the Activity [2] is reported as 0.25% and the Activity [4] is reported as 85%. For the same compound, the Activity [5] was 70% and the Activity [6] was 60%.

For `C=C1/C(=C\C=C2/CCC[C@]3(C)[C@@H]([C@H](C)CCCC(C)(C)O)CC[C@@H]23)C[C@@H](O)C[C@@H]1O` [CALCITRIOL], the Activity [1] was 100%, the Activity [2] was 100% and the Activity [3] was 100%. The Activity [4] was 100%, the Activity [5] was 100% and the Activity [6] was 100%.

With `C=C1C(=CC=C[C@@H]2CC[C@](C)(/C=C\CC(F)(F)C(C)(C)O)C2(C)C)C[C@@H](O)C[C@@H]1O` the Activity [1] was 40%, the Activity [2] was <0.1% and the Activity [3] was 12%. For the same compound, the Activity [4] was 200%, the Activity [5] was 70% and the Activity [6] was 20%.

In the case of `C=C1C(=CC=C[C@@H]2CC[C@](C)(CCCCC(C)(C)O)C2(C)C)C[C@@H](O)C[C@@H]1O`, the Activity [1] is reported as 30%, the Activity [2] is reported as <1% and the Activity [3] is reported as 60%. For the same compound, the Activity [4] was 40%, the Activity [5] was 80% and the Activity [6] was 40%.

`C=C1C(=CC=C[C@@H]2CC[C@](C)(CCCCC(O)(CC)CC)C2(C)C)C[C@@H](O)C[C@@H]1O` was tested, and the Activity [1] was 80%, the Activity [2] was 5% and the Activity [3] was 200%. The Activity [4] was 90%, the Activity [5] was 250% and the Activity [6] was 100%.

With `C=C1/C(=C\C=C\[C@@H]2CC[C@](C)(CCC#CC(C)(C)O)C2(C)C)C[C@@H](O)C[C@@H]1O` the Activity [1] was 9%, the Activity [2] was 0.1% and the Activity [3] was 50%. It also gave an Activity [4] of 400%, an Activity [5] of 150% and an Activity [6] of 100%.

Work on `C=C1C(=CC=C[C@@H]2CC[C@](C)(/C=C\CCC(O)(C(F)(F)F)C(F)(F)F)C2(C)C)C[C@@H](O)C[C@@H]1O` yielded an Activity [1] of 80%, an Activity [2] of 13% and an Activity [3] of 50%. The Activity [4] was 300%, the Activity [5] was 375% and the Activity [6] was 50%.

`CC(C)(O)CCCC[C@@]1(C)CC[C@@H](/C=C/C=C2C[C@@H](O)C[C@H](O)C2)C1(C)C` showed an Activity [1] of 40%, an Activity [2] of 0.25% and an Activity [3] of 40%. It also gave an Activity [4] of 10%, an Activity [5] of 30% and an Activity [6] of 9%.
